Assays:
Chlamydia pneumoniae = test: Mouse pneumonia model, chlamydia; format: in vivo, BALB/C mice; parameters: concentration or dose not given beside the values; details: mean ± SD
Experimental: (§1) The mouse pneumonia model was successfully established by the nose-drop method. To build the mouse pneumonia model, BALB/C mice with a body mass of 16-22 g were selected and anesthetized pneumonia chain was prepared after anesthesia with ether on day 0, day 1, and day 2. Staphylococcal fluid, adenovirus concentrate, Mycoplasma pneumoniae, Chlamydia pneumoniae, protozoa, and pneumonia fungi were slowly dripped into the nasal cavity of the mice, so that they enter the tracheobronchial. During the operation process, care was exercised to prevent bacterial fluid from flowing into the esophagus, which leads to inactivation the bacterial fluid. After successful model establishment, the polypeptides of the present invention were administered, and the results were shown in Table 5. […] The results were expressed in average value±standard deviation.

pneumonia fungi = test: Mouse pneumonia model, fungal; format: in vivo, BALB/C mice; parameters: concentration or dose not given beside the values; details: mean ± SD
Experimental: as §1

protozoa = test: Mouse pneumonia model, protozoal; format: in vivo, BALB/C mice; parameters: concentration or dose not given beside the values; details: mean ± SD
Experimental: as §1

Mycoplasma pneumoniae = test: Mouse pneumonia model, mycoplasma; format: in vivo, BALB/C mice; parameters: concentration or dose not given beside the values; details: mean ± SD
Experimental: as §1

[1] = test system: A549 cells induced by TGF-β1 (lung fibrosis model); test: Hydroxyproline content in TGF-β1-induced A549 pulmonary fibrosis cell model; format: cell-based, human; details: for Hydroxyproline Content Inhibition Rate in the Pulmonary Fibrosis Model: 48 hours
Experimental: Human non-small cell lung cancer cells A549 were cultured in DMEM medium containing 10% (volume fraction) fetal bovine serum, cultured in a carbon dioxide incubator with a volume fraction of 5% at 37° C., and changed once every other day, depending on cell density. A549 cells in logarithmic growth phase were digested with 0.25% trypsin to prepare a cell suspension, adjusted to a cell concentration of 1×10^9 cells/L, and seeded at a density of 4×10^5 cells/cm2 in a cell culture dish of 90 cm^2. The cells were randomly divided into two groups: (1) control group: cultured in DMEM containing 10% (volume fraction) fetal bovine serum; (2) model group: containing 10% (volume fraction) fetal bovine serum, transforming growth factor (TGF-β1, final concentration 5 μg/L) was cultured in DMEM. The cells were cultured at 37° C. in a volumetric 5% carbon dioxide incubator, and changed every other day, depending on the cell density. Cell morphology was observed daily using an inverted microscope to determine when the model was established. When A549 cells are changed from the cobblestone shape of the original epithelial cells to the long spindle shape of the interstitial cells, the modeling is successfully established.
After 48 hours of addition of the polypeptides, the cells of the control group, the model group, and the administration group were collected for subsequent measurement of molecular markers related to pulmonary fibrosis.
Hydroxyproline accounts for 13.4% of collagen, so the content of hydroxyproline can reflect the accumulation of collagen during pulmonary fibrosis, which in turn reflects the degree of pulmonary fibrosis.
Prepare citric acid buffer: 120 g of sodium citrate, 12 mL of glacial acetic acid, 46 g of citric acid, 34 g of sodium hydroxide, dissolved in distilled water, adjust the pH to 6.0, and then dilute to 1000 mL.
Prepare 0.05 mol/L chloramine T solution: weigh 7.05 g of chloramine T, dissolve in 100 mL of distilled water, then add 150 mL of ethylene glycol, and add 250 mL of citric acid buffer to mix well.
Prepare p-dimethylaminobenzaldehyde: Reagent A: Take 20 mL of absolute ethanol, slowly add 2.74 mL of concentrated sulfuric acid; Reagent B: Take 12.0 g of p-dimethylaminobenzaldehyde, slowly add 40 mL of absolute ethanol. Heat in a water bath to completely dissolve and cool to room temperature, then slowly add the A solution to B and mix well.
Prepare a […] perchloric acid solution: take 27 mL of perchloric acid and dilute to 100 mL with distilled water.
The specific steps are as follows: collect the cells in a 1 mL water solution and lyse the cells using a homogenizer; adjust the pH to neutral, dilute to 3 mL, add activated carbon to centrifuge; take 1 mL supernatant, add 1 mL solution 1 (1 mL citrate buffer and 1 mL 0.05 mol/L chloramine T solution), stand for 10 minutes, add 1 mL of perchloric acid, stand for 5 minutes, add 1 mL of p-dimethylaminobenzaldehyde reagent, keep in 60° C. water bath for 15 minutes; centrifuge at 3500 rpm/min for 10 minutes, take the supernatant to measure the absorbance value at a wavelength of 550 nm.
The test was repeated 3 times independently, and the inhibition rate was calculated as follows: inhibition rate (%)=(1−experimental group absorbance/model group absorbance)×100%.

[2] = test system: Non-small cell lung cancer; test: MTT assay, lung cancer tumor cells; format: cell-based, human; parameters: concentration or dose not given beside the values; details: 48 h, mean ± SD
Experimental: (§2) The inhibition of the growth of human lung cancer tumor cells by the polypeptide of the present invention was examined by MTT assay. The lung cancer tumor cells were cultured in a 37° C., 5% (volume fraction) CO2 incubator to a density of 90% or more, and collected by trypsinization. The cells were resuspended in the culture medium and counted under a microscope to adjust the cell concentration to 2.0×10^4 cells/mL, the cell suspension was inoculated into a 96-well plate at 100 μL per well, and cultured overnight at 37° C. in a 5% (volume fraction) CO2 incubator. After the cells were completely adhered, the polypeptide of the present invention was added as a drug-administered group, and a culture solution containing no drug was used as a blank control group, and the culture solution was diluted to each predetermined concentration. Each dilution was separately added to a 96-well plate at 100 μL per well and incubated for 48 h at 37° C. in a 5% (volume fraction) CO2 incubator. 20 μL of 5 mg/mL MTT was added to each well of a 96-well plate, and incubation was continued for 4 hours. The medium was aspirated, and the cells were dissolved in 100 μL of DMSO per well. The absorbance was measured by a microplate reader at a detection wavelength of 570 nm and a reference wavelength of 630 nm, and the growth inhibition rate was calculated as follows: tumor growth inhibition rate (%)=(1−administered group absorbance value/unadministered group absorbance value)×100%, and the experiment was repeated 3 times independently. The results obtained by the test were expressed as mean±standard deviation. The results in Table 6 indicate that the polypeptides of the present invention have a good inhibitory effect on proliferation of a variety of human lung cancer tumors (FIG. 5).

Squamous cell carcinoma = test: MTT assay, lung cancer tumor cells; format: cell-based, human; parameters: concentration or dose not given beside the values; details: 48 h, mean ± SD
Experimental: as §2

Adenosquamous carcinoma = test: MTT assay, lung cancer tumor cells; format: cell-based, human; parameters: concentration or dose not given beside the values; details: 48 h, mean ± SD
Experimental: as §2

Adenocarcinoma = test: MTT assay, lung cancer tumor cells; format: cell-based, human; parameters: concentration or dose not given beside the values; details: 48 h, mean ± SD
Experimental: as §2

[3] = test system: Pneumonia caused by lung infection; test: Mouse pneumonia model, pneumonia caused by lung infection; format: in vivo, BALB/C mice; parameters: concentration or dose not given beside the values; details: mean ± SD
Experimental: as §1

adenovirus concentrate = test: Mouse pneumonia model, viral; format: in vivo, BALB/C mice; details: mean ± SD
Experimental: as §1

Substance: Ile-Val-Arg-Arg-Ala-Asp-Arg-Ala-Ala-Val-Pro-Gly-Gly-Gly-Gly-Arg-Gly-Asp-Gly-Gly-Gly-Gly-Pro-(D-Pyr)-(D-Cys)-Bip-Arg-Gly-Glu [Polypeptide V]
- Inhibitory Effects on Various Pulmonary Infections (Chlamydia pneumoniae): 40.40 ± 15.13%
- Inhibitory Effects on Various Pulmonary Infections (pneumonia fungi): 50.50 ± 16.77%
- Inhibitory Effects on Various Pulmonary Infections (protozoa): 53.19 ± 20.63%
- Inhibitory Effects on Various Pulmonary Infections (Mycoplasma pneumoniae): 34.37 ± 14.40%
- effect on content of hydroxyproline in lung fibrosis model cells (FIG. 1-3), in words [1]: can inhibit the content of hydroxyproline in lung fibrosis model cells
- Hydroxyproline Content Inhibition Rate in the Pulmonary Fibrosis Model ([1]; 4 uM): 34.47%
- Hydroxyproline Content Inhibition Rate in the Pulmonary Fibrosis Model ([1]; 8 uM): 49.25%
- tumor growth inhibition rate, MTT Assay [2]: 79.78 ± 20.01%
- tumor growth inhibition rate, MTT Assay (Squamous cell carcinoma): 57.18 ± 10.83%
- tumor growth inhibition rate, MTT Assay (Adenosquamous carcinoma): 51.56 ± 13.97%
- tumor growth inhibition rate, MTT Assay (Adenocarcinoma): 75.52 ± 15.25%
- Inhibitory Effects on Various Pulmonary Infections [3]: 44.61 ± 18.63%
- Inhibitory Effects on Various Pulmonary Infections (adenovirus concentrate): 50.35 ± 15.73%

Reference: patent US20190031717A1, “MULTI-FUNCTIONAL FUSION POLYPEPTIDE, PREPARATION METHOD THEREOF, AND APPLICATION OF SAME” (NANJING ANJI BIOLOGICAL TECHNOLOGY CO., LTD, priority 2016, published 2019)
